The values below come from patent publication US9018224B2, “Substituted cyclopropyl compounds useful as GPR119 agonists” (Merck Sharp & Dohme Corp., priority 2011, dated 2015).

For this experiment, the target named is T1, human GPR119 (Homo sapiens, UniProt Q8TDV5).
T1 sequence (Q8TDV5 1-308 limits assumed): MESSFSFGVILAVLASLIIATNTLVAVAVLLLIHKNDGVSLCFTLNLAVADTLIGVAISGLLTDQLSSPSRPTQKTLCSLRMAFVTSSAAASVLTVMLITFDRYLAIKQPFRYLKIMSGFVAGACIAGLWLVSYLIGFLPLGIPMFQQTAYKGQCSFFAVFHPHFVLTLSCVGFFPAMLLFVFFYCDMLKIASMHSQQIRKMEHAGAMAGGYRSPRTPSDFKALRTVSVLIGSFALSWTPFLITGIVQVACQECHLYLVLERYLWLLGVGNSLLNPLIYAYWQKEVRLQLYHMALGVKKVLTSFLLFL
Nature of the experiment: Measurement of GPR119 signaling by cAMP (LANCE cAMP kit or HTRF) in HEK293 cells transfected with human GPR119. The experiment is classed as cell-based. To be noted: agonist cAMP response in HEK293 cells stably transfected with human GPR119; patent does not say which of the two cAMP formats (LANCE or HTRF). Here is the method: Measurement of GPR119 Signaling Using LANCE 384-Well cAMP Kit
The adenylate cyclase assay was constructed following the LANCE™ cAMP Kit (Perkin Elmer, AD0264) instructions. […] The reaction was stopped by incubating with the supplied detection buffer containing the europium chelate of the Eu-SA/Biotin-cAMP tracer for 3 hours. The assay was performed in duplicate in a 384 well plate for duplicate plates. […] Basal activity was determined using a DMSO control and maximum response was defined as cAMP stimulation produced by an internal agonist control. Standard cAMP concentrations were assayed concurrently for conversion of fluorescence signal to cAMP level. The data was analyzed using 4-parameter curve fit in Microsoft Excel
Measurement of GPR119 Signaling Using a Cyclic AMP (cAMP) Homogenous Time Resolved Fluorescence (HTRF) Assay
Chinese hamster ovary (CHO) cell lines stably transfected with the permissive guanine nucleotide binding protein alpha 15 (Gα15) and murine GPR119 were maintained in DMEM media containing FBS, penicillin-streptomycin, puromycin, and G418 (geneticin). […] Agonist activation of the GPR119 receptor was measured in receptor transfected cells described above, treated with compounds of this invention, using a commercial homogenous time resolved fluorescence (HTRF) kit for measurement of cAMP (CisBio, Bedford, Mass.). The assay was performed in 96-well half-volume plates (murine) or 384-well plates (human) following the manufacturers instructions. Briefly, suspended cells were incubated with a dose titration of test compound at room temperature for 60 min, lysed, and incubated with HTRF reagents for an additional 60 min. The plate was read using an Envision multilabel reader (Perkin Elmer) adjusted to read time resolved fluorescence and the cAMP concentrations were extrapolated from a cAMP calibration curve. […] The concentration of test compound required to stimulate a half-maximal response (EC50), and efficacy as compared to an internal agonist control, was determined from a sigmoidal 4-parameter curve fit of the resulting plot of normalized activity versus compound concentration.
The term EC50 denotes the concentration giving half of the maximal effect. For `COCc1cnc(N2CCC([C@H]3C[C@H]3CCOc3ccc(CC(=O)N(C)C)c(F)c3)CC2)nc1` [Example 47], the EC50 turned out to be 1.3 nM.

Regarding `COCc1cnc(N2CCC([C@H]3C[C@H]3CCOc3ccc(CC(=O)N4CC5CC5C4)c(F)c3)CC2)nc1` (some centres unmarked) [Example 51], the EC50 is 0.98 nM.

For `CC(C)(O)c1cnc(N2CCC([C@H]3C[C@H]3CCOc3ccc(CC(=O)N4CCC4)c(F)c3)CC2)nc1` [Example 205, 1-(azetidin-1-yl)-2-(2-fluoro-4-{2-[(1S,2R)-2-{1-[5-(2-hydroxypropan-2-yl]pyrimidin-2-yl]piperidin-4-yl}cyclopropyl]ethoxy}phenyl)ethanone], the EC50 was 7.5 nM.

For the compound `O=C(Cc1ccc(OCC[C@@H]2C[C@@H]2C2CCN(c3ncc(Cl)cn3)CC2)cc1F)NC1CC1` [Example 62], the EC50 turned out to be 1.4 nM.

`O=C(Cc1ccc(OCC[C@@H]2C[C@@H]2C2CCN(c3ncc(Cl)cn3)CC2)cc1F)NC(C1CC1)C1CC1` [Example 110] yielded an EC50 of 5.8 nM.

`NC(=O)C1CCN1C(=O)Cc1ccc(OCC[C@@H]2C[C@@H]2C2CCN(c3ncc(Cl)cn3)CC2)cc1F` (some centres unmarked) [Example 106] had an EC50 of 4.3 nM.

As to `O=C(Cc1ccc(OCC[C@@H]2C[C@@H]2C2CCN(c3ncc(Cl)cn3)CC2)cc1F)NCC(F)(F)F` [Example 79], it took 1.6 nM to reach a half-maximal effect (EC50).

With `COc1cnc(N2CCC([C@H]3C[C@H]3CCOc3cc(F)c(CC(=O)N(C)C)c(F)c3)CC2)nc1` [Example 213], the half-maximal effective concentration (EC50) is 0.23 nM.

As to `O=C(Cc1ccc(OCC[C@@H]2C[C@@H]2C2CCN(c3ncc(Cl)cn3)CC2)cc1F)N1CCc2oncc2C1` [Example 183], a half-maximal response (EC50) required 0.93 nM.

The compound `O=C(Cc1ccc(OCC[C@@H]2C[C@@H]2C2CCN(c3ncc(Cl)cn3)CC2)cc1F)N1CCc2sccc2C1` [Example 185] displayed an EC50 of 2.2 nM.

With `Cc1nc2c(o1)CN(C(=O)Cc1ccc(OCC[C@@H]3C[C@@H]3C3CCN(c4ncc(Cl)cn4)CC3)cc1F)CC2` [Example 141], the midpoint of the response, the EC50, lay at 1.2 nM.

Compound `O=C(Cc1ccc(OCC[C@@H]2C[C@@H]2C2CCN(c3ncc(Cl)cn3)CC2)cc1F)NC1CCC1` [Example 63] displayed an EC50 of 4.2 nM.

For the compound `Cc1nc2c([nH]1)CN(C(=O)Cc1ccc(OCC[C@@H]3C[C@@H]3C3CCN(c4ncc(Cl)cn4)CC3)cc1F)C2` [Example 121], the concentration giving a half-maximal response (EC50) turned out to be 2.2 nM.

In turn, `CCOc1cnc(N2CCC([C@H]3C[C@H]3CCOc3cc(F)c(CC(=O)N4CC(OC)C4)c(F)c3)CC2)nc1` [Example 236] displayed an EC50 of 0.12 nM.

`COCc1cnc(N2CCC([C@H]3C[C@H]3CCOc3ccc(CC(=O)N4CC(OC)C4)c(F)c3)CC2)nc1` [Example 45] had an EC50 of 0.81 nM.

`CCc1cnc(N2CCC([C@H]3C[C@H]3CCOc3ccc(CC(=O)N4CCC4)cn3)CC2)nc1` [Example 241, 1-(azetidin-1-yl)-2-[6-(2-{(1S,2R)-2-[1-(5-ethylpyrimidin-2-yl)piperidin-4-yl]cyclopropyl}ethoxy)pyridin-3-yl)ethanone] gave an EC50 of 7.4 nM.

Turning to `COc1cnc(N2CCC([C@H]3C[C@H]3CCOc3ccc(CC(=O)N4CC(C)(O)C4)c(F)c3)CC2)nc1` [Example 35], the EC50 was 2.2 nM.

Compound `COc1nnc2n1CCN(C(=O)Cc1ccc(OCC[C@@H]3C[C@@H]3C3CCN(c4ncc(Cl)cn4)CC3)cc1F)C2` [Example 137] registered an EC50 of 3.9 nM.

Consider `Cc1ccc2n1CCN(C(=O)Cc1ccc(OCC[C@@H]3C[C@@H]3C3CCN(c4ncc(Cl)cn4)CC3)cc1F)C2C` (some centres unmarked) [Example 191], for which the EC50 was determined as 3.4 nM.

Compound `O=C(Cc1ccc(OCC[C@@H]2C[C@@H]2C2CCN(c3ncc(Cl)cn3)CC2)cc1F)N1CC(c2cccnc2)C1` [Example 122] had an EC50 of 0.66 nM.

In the case of `O=C(Cc1ccc(OCC[C@@H]2C[C@@H]2C2CCN(c3ncc(Cl)cn3)CC2)cc1F)NC1(C(F)(F)F)CC1` [Example 87], the EC50 amounted to 3.6 nM.

`COCc1cnc(N2CCC([C@H]3C[C@H]3CCOc3cc(F)c(Cc4nnco4)c(F)c3)CC2)nc1` [Example 247] registered a concentration for a half-maximal effect (EC50) of 6.7 nM.

In turn, `CCOCc1cnc(N2CCC([C@H]3C[C@H]3CCOc3ccc(CC(=O)N4CC(OC)C4)c(F)c3)CC2)nc1` [Example 203] returned an EC50 of 1.2 nM.

In turn, `Cc1cc(OCC[C@@H]2C[C@@H]2C2CCN(c3ncc(Cl)cn3)CC2)ccc1CC(=O)N(C)C` [Example 18, 2-[4-(2-{(1S,2R)-2-[1-(5-chloropyrimidin-2-yl)piperidin-4-yl]cyclopropyl}ethoxy)-2-methylphenyl]-N,N-dimethylacetamide] showed an EC50 of 1.7 nM.

As to `COCc1cnc(N2CCC([C@H]3C[C@H]3CCOc3cc(F)c(CC(=O)N4CC(C)(O)C4)c(F)c3)CC2)nc1` [Example 221], the half-maximal effective concentration (EC50) came out at 2.1 nM.

As for `Cc1cnc(Cc2ccc(OCC[C@@H]3C[C@@H]3C3CCN(c4ncc(Cl)cn4)CC3)cc2F)o1` [Example 243, 5-chloro-2-{4-[(1R,2S)-2-(2-{3-fluoro-4-[(5-methyl-1,3-oxazol-2-yl)methyl]phenoxy}ethyl)cyclopropyl]piperidin-1-yl}pyrimidine], the EC50 turned out to be 2.5 nM.

`COCc1cnc(N2CCC([C@H]3C[C@H]3CCOc3cc(F)c(CC(=O)N(C)C4COC4)c(F)c3)CC2)nc1` [Example 226] came in with an EC50 of 0.41 nM.

For `O=C(Cc1ccc(OCC[C@@H]2C[C@@H]2C2CCN(c3ncc(Cl)cn3)CC2)cc1F)N1CCc2oc(C3CC3)nc2C1` [Example 143], the EC50 came to 4.7 nM.

With `COCc1cnc(N2CCC([C@H]3C[C@H]3CCOc3ccc(CC(=O)N4CC(C)C4)cc3)CC2)nc1` [Example 14], it took 5.5 nM to reach a half-maximal effect (EC50).

In the case of `COCc1cnc(N2CCC([C@H]3C[C@H]3CCOc3cc(F)c(CC(=O)N4CCCC4)c(F)c3)CC2)nc1` [Example 228], the EC50 came out at 0.2 nM.

As to `O=C(Cc1ccc(OCC[C@@H]2C[C@@H]2C2CCN(c3ncc(Cl)cn3)CC2)cc1F)N1Cc2sccc2C(O)C1` (some centres unmarked) [Example 173], the EC50 is 0.97 nM.

In turn, `CC1(C)CN(C(=O)Cc2ccc(OCC[C@@H]3C[C@@H]3C3CCN(c4ncc(Cl)cn4)CC3)cc2F)C1` [Example 70] gave a concentration giving a half-maximal response (EC50) of 0.8 nM.

With `CC1CC(C)CN(C(=O)Cc2ccc(OCC[C@@H]3C[C@@H]3C3CCN(c4ncc(Cl)cn4)CC3)cc2F)C1` (some centres unmarked) [Example 89], the EC50 was found to be 8.6 nM.

Take `CC1c2nc(C(F)(F)F)cn2CCN1C(=O)Cc1ccc(OCC[C@@H]2C[C@@H]2C2CCN(c3ncc(Cl)cn3)CC2)cc1F` (some centres unmarked) [Example 188]: the response was half-maximal at 0.55 nM (EC50).

The compound `CC(C)(O)Cn1cc2c(n1)CN(C(=O)Cc1ccc(OCC[C@@H]3C[C@@H]3C3CCN(c4ncc(Cl)cn4)CC3)cc1F)C2` [Example 124] came in with an EC50 of 3.2 nM.

The compound `O=C(Cc1ccc(OCC[C@@H]2C[C@@H]2C2CCN(c3ncc(Cl)cn3)CC2)cc1F)N1C[C@H](F)[C@@H](F)C1` [Example 75] had a concentration for a half-maximal effect (EC50) of 0.78 nM.

In the case of `O=C(Cc1ccc(OCC[C@@H]2C[C@@H]2C2CCN(c3ncc(Cl)cn3)CC2)cc1F)N1CCc2nc(C3CC3)oc2C1` [Example 150], the response was half-maximal at 3.2 nM (EC50).

Compound `CCOCc1cnc(N2CCC([C@H]3C[C@H]3CCOc3ccc(CC(=O)N4CC(F)C4)c(F)c3)CC2)nc1` [Example 201] returned an EC50 of 0.49 nM.

Turning to `O=C(Cc1ccc(OCC[C@@H]2C[C@@H]2C2CCN(c3ncc(Cl)cn3)CC2)cc1F)N1CCCCC1` [Example 84], the EC50 was 1.5 nM.

`O=C(Cc1ccc(OCC[C@@H]2C[C@@H]2C2CCN(c3ncc(Cl)cn3)CC2)cc1F)N1CCn2ccnc2C1` [Example 149] registered an EC50 of 1.1 nM.

In turn, `COCc1cnc(N2CCC([C@H]3C[C@H]3CCOc3cc(F)c(CC(=O)N4CC(O)C4)c(F)c3)CC2)nc1` [Example 218, 1-({2,6-difluoro-4-[2-((1S,2R)-2-{1-[5-(methoxymethyl)pyrimidin-2-yl]piperidin-4-yl}cyclopropyl)ethoxy]phenyl}acetyl)azetidin-3-ol] showed an EC50 of 1.6 nM.
